Patent US12077503B2, “Substituted cyclic amides and their use as herbicides” (FMC CORPORATION, priority 2015, dated 2024)

Key:
Format in all cases: in vivo
[1] = system: corn (Zea mays); test: Test A postemergence; details: Zea mays, post-emergence, 240 h, Postemergence
In short: (§1)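 Visual injury scores from 0, no effect, to 100, complete control, were assigned versus untreated controls roughly 10 d after treatment in the greenhouse. Test chemicals, formulated with surfactant in a non-phytotoxic solvent, were applied to planted seeds as a preemergence soil spray or postemergence to one- to two-leaf plants 2 to 10 cm tall, in loam–sand soil.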

[2] = system: barnyardgrass (Echinochloa crus-galli); test: Test A postemergence; details: Echinochloa crus-galli, post-emergence, 240 h, Postemergence
In short: as §1

[3] = system: ragweed (common ragweed, Ambrosia elatior); test: Test A postemergence; details: Ambrosia artemisiifolia, post-emergence, 240 h, Postemergence
In short: as §1

[4] = system: Galium (catchweed bedstraw, Galium aparine); test: Test A postemergence; details: Galium, post-emergence, 240 h, Postemergence
In short: as §1

[5] = system: pigweed (Amaranthus retroflexus); test: Test A postemergence; details: Amaranthus retroflexus, post-emergence, 240 h, Postemergence
In short: as §1

[6] = system: blackgrass (Alopecurus myosuroides); test: Test A postemergence; details: Alopecurus myosuroides, post-emergence, 240 h, Postemergence
In short: as §1

[7] = system: wheat (Triticum aestivum); test: Test A postemergence; details: Triticum aestivum, post-emergence, 240 h, Postemergence
In short: as §1

[8] = system: ryegrass, Italian (Italian ryegrass, Lolium multiflorum); test: Test A postemergence; details: Lolium multiflorum, post-emergence, 240 h, Postemergence
In short: as §1

[9] = system: giant foxtail (Setaria faberii); test: Test A postemergence; details: Setaria faberi, post-emergence, 240 h, Postemergence
In short: as §1

[10] = system: ragweed (common ragweed, Ambrosia elatior); test: Test A preemergence; details: Ambrosia artemisiifolia, pre-emergence, 240 h, 0 to 100 scale (0 no effect, 100 complete control), read-out: Plant response rating, Ragweed
In short: as §1

[11] = system: Kochia (Kochia scoparia); test: Test A preemergence; details: Bassia scoparia, pre-emergence, 240 h, 0 to 100 scale (0 no effect, 100 complete control), read-out: Plant response rating, Kochia
In short: as §1

[12] = system: pigweed (Amaranthus retroflexus); test: Test A preemergence; details: Amaranthus retroflexus, pre-emergence, 240 h, 0 to 100 scale (0 no effect, 100 complete control), read-out: Plant response rating, Pigweed
[13] = system: ryegrass, Italian (Italian ryegrass, Lolium multiflorum); test: Test A preemergence; details: Lolium multiflorum, pre-emergence, 240 h, 0 to 100 scale (0 no effect, 100 complete control), read-out: Plant response rating, Ryegrass, Italian
In short: as §1

[14] = system: giant foxtail (Setaria faberii); test: Test A preemergence; details: Setaria faberi, pre-emergence, 240 h, 0 to 100 scale (0 no effect, 100 complete control), read-out: Plant response rating, Foxtail, Giant
In short: as §1

Cc1ccc([C@H]2CN(C)C(=O)[C@@H]2C(=O)Nc2ccc(F)c(F)c2F)cc1 [Compound 1378]
plant injury at 125 g/ha ([1]; 125 g ai/ha, visual rating about 10 d after treatment, read-out: Corn plant response rating (0 to 100 scale)): 80% | Corn plant response rating (crop injury, 0 = no effect, 100 = complete kill) at 500 g/ha ([1]; 500 g ai/ha, visual injury, 0 to 100 scale (0 no effect, 100 complete control), approx. 10 d): 80% | pest or weed control at 125 g/ha ([2]; 125 g ai/ha, visual rating about 10 d after treatment, read-out: Barnyardgrass plant response rating (0 to 100 scale, 0 no effect, 100 complete control)): 80% | pest or weed control at 500 g/ha ([2]; 500 g ai/ha, visual injury, 0 to 100 scale (0 no effect, 100 complete control), approx. 10 d, read-out: Plant response rating, Barnyardgrass): 80% | pest or weed control at 125 g/ha ([3]; 125 g ai/ha, visual rating about 10 d after treatment, read-out: Ragweed plant response rating (0 to 100 scale)): 40% | pest or weed control at 500 g/ha ([3]; 500 g ai/ha, visual injury, 0 to 100 scale (0 no effect, 100 complete control), approx. 10 d, read-out: Plant response rating, Ragweed): 70% | pest or weed control at 125 g/ha ([4]; 125 g ai/ha, visual rating about 10 d after treatment, read-out: Galium plant response rating (0 to 100 scale)): 60% | pest or weed control at 500 g/ha ([4]; 500 g ai/ha, visual injury, 0 to 100 scale (0 no effect, 100 complete control), approx. 10 d, read-out: Plant response rating, Galium): 70% | pest or weed control at 125 g/ha ([5]; 125 g ai/ha, visual rating about 10 d after treatment, read-out: Pigweed plant response rating (0 to 100 scale)): 30% | pest or weed control at 500 g/ha ([5]; 500 g ai/ha, visual injury, 0 to 100 scale (0 no effect, 100 complete control), approx. 10 d, read-out: Plant response rating, Pigweed): 70% | pest or weed control at 125 g/ha ([6]; 125 g ai/ha, visual rating about 10 d after treatment, read-out: Blackgrass plant response rating (0 to 100 scale)): 30% | pest or weed control at 500 g/ha ([6]; 500 g ai/ha, visual injury, 0 to 100 scale (0 no effect, 100 complete control), approx. 10 d, read-out: Plant response rating, Blackgrass): 40% | plant injury at 125 g/ha ([7]; 125 g ai/ha, visual rating about 10 d after treatment, read-out: Wheat plant response rating (0 to 100 scale)): 60% | plant injury at 500 g/ha ([7]; 500 g ai/ha, visual injury, 0 to 100 scale (0 no effect, 100 complete control), approx. 10 d, read-out: Plant response rating, Wheat): 70% | pest or weed control at 125 g/ha ([8]; 125 g ai/ha, visual rating about 10 d after treatment, read-out: Ryegrass, Italian plant response rating (0 to 100 scale)): 40% | pest or weed control at 500 g/ha ([8]; 500 g ai/ha, visual injury, 0 to 100 scale (0 no effect, 100 complete control), approx. 10 d, read-out: Plant response rating, Ryegrass, Italian): 60% | pest or weed control at 125 g/ha ([9]; 125 g ai/ha, visual rating about 10 d after treatment, read-out: Foxtail, Giant plant response rating (0 to 100 scale)): 80% | pest or weed control at 500 g/ha ([9]; 500 g ai/ha, visual injury, 0 to 100 scale (0 no effect, 100 complete control), approx. 10 d, read-out: Plant response rating, Foxtail, Giant): 90% | pest or weed control at 500 g/ha ([10]; 500 g ai/ha, preemergence): 90% | pest or weed control at 125 g/ha ([10]; Preemergence, 125 g ai/ha): 50% | pest or weed control at 500 g/ha ([11]; 500 g ai/ha, preemergence): 90% | pest or weed control at 125 g/ha ([11]; Preemergence, 125 g ai/ha): 80% | pest or weed control at 500 g/ha ([12]; 500 g ai/ha, preemergence): 70% | pest or weed control at 125 g/ha ([12]; Preemergence, 125 g ai/ha): 70% | pest or weed control at 500 g/ha ([13]; 500 g ai/ha, preemergence): 90% | pest or weed control at 125 g/ha ([13]; Preemergence, 125 g ai/ha): 80% | pest or weed control at 500 g/ha ([14]; 500 g ai/ha, preemergence): 90% | pest or weed control at 125 g/ha ([14]; Preemergence, 125 g ai/ha): 90%
